Test results: publication PMC10574185, “Encapsulation and Biological Activity of Hesperetin Derivatives with HP-β-CD” (Molecules, 2023)
In brackets after ≈: the same amount, converted by molar mass.

Legend:
[1] = system: Staphylococcus aureus ATCC 29737; assay: Minimal inhibition concentration (dilution + diffusion-well); assay type: cell-based; details: ATCC29737, 37 °C, 18 h
In short: (§1)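 Agar diffusion-well format on Mueller–Hinton agar, 8 mm wells loaded with two-fold compound dilutions prepared from 500 to 62.5 µM in 5% DMSO. Plates incubated 18 h at 37 °C; MIC taken as first concentration showing growth inhibition.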

[2] = system: Escherichia coli ATCC 35218; assay: as above; assay type: cell-based; details: ATCC35218, 37 °C, 18 h
In short: as §1

Pseudomonas aeruginosa = system: Pseudomonas aeruginosa; set-up: method as in PMID 36009336; details: cited from earlier work
Escherichia coli = system: Escherichia coli; set-up: method as in PMID 36009336; details: cited from earlier work
Bacillus cereus = system: Bacillus cereus; set-up: method as in PMID 36009336; details: cited from earlier work
[3] = system: Escherichia coli ATCC 11303; assay: Minimal inhibition concentration (dilution + diffusion-well); assay type: cell-based; details: ATCC11303, 37 °C, 18 h
In short: as §1

Staphylococcus aureus = system: Staphylococcus aureus; set-up: method as in PMID 36009336; details: cited from earlier work
prostate cancer cells = details: cited from earlier work
[4] = pH 6.5; cited from earlier work

SMILES: COc1ccc(C2CC(=NNC(N)=S)c3c(O)cc(O)cc3O2)cc1O (centres unmarked) [HTSC, N-[2,3-dihydro-5,7-dihydroxy-2-(3-hydroxy-4-methoxyphenyl)chromen-4-ylidene]thiosemicarbazide]
- MIC [1]: 2.5 µM

SMILES: COc1ccc(C2C/C(=N\NC(=O)c3ccccc3)c3c(O)cc(O)cc3O2)cc1O (racemic) [HHSB]
- MIC [2]: 2.5 µM

SMILES: COc1ccc(C2CC(=O)c3c(O)cc(O)cc3O2)cc1O (centres unmarked) [Hesperetin, 3′,5,7-Trihydroxy-4′-methoxyflavanone]
- MIC (Pseudomonas aeruginosa): 500 µg/mL (≈ 1650 µM)
- MIC (Escherichia coli): 500 µg/mL (≈ 1650 µM)
- MIC (Bacillus cereus): 250 µg/mL (≈ 827 µM)
- MIC [3]: 2.5 µM
- MIC (Staphylococcus aureus): 125 µg/mL (≈ 414 µM)
- decrease in the cytotoxicity of cabazitaxel (prostate cancer cells): 13.1 fold
- decrease in the cytotoxicity of docetaxel (prostate cancer cells): 9.8 fold
- increase of hesperetin solubility with HP-β-CD [4]: 164 times

SMILES: COc1ccc(C2C/C(=N\NC(=O)c3ccncc3)c3c(O)cc(O)cc3O2)cc1O (racemic) [HIN]
- MIC [3]: 2.5 µM
